Test results published in patent publication US20220073525A1, “COMPOSITIONS FOR INHIBITING UBIQUITIN SPECIFIC PROTEASE 1” (FORMA Therapeutics, Inc., priority 2019, published 2022).

target: USP1 (Homo sapiens, UniProt O94782); experiment: Biochemical Assay for USP1 Inhibition (Ub-Rho 110 fluorescence); settings: Table 5; 30 min preincubation, Enzyme 0.025 nM, Substrate Ub-Rho 110 25 nM; read-out: IC50 (μm)
Experimental: The assay was performed in a final volume of 6 μL in assay buffer containing 20 mM Tris-HCl pH 8.0, (1 M Tris-HCl, pH 8.0 solution; Corning 46-031-CM), 1 mM GSH (L-glutathione reduced, Sigma-Aldrich, G4251-100G), 0.03% BGG (0.22 μM filtered, Sigma, G7516-25G), and 0.01% Triton X-100 (Sigma, T9284-10L). Nanoliter quantities of 10-point, 3-fold serial dilution in DMSO were pre-dispensed into 1536 assay plates (Corning, #3724BC) for a final test concentration of 25 μM to 1.3 nM, top to lowest dose, respectively. Concentration and incubation times were optimized for the maximal signal-to-background while maintaining initial velocity conditions at a fixed substrate concentration (<<Km). 3 μL of 2× Enzyme was added to assay plates (pre-stamped with compound), preincubated for 30 min, and then treated with 3 μL of 2× Substrate (Ub-Rho 110, UbiQ-126). Final concentrations of Enzyme and Substrate are 0.025 nM and 25 nM, respectively. Plates were read using a kinetic protocol continuously for 11 min on the Envision (Perkin Elmer) or PheraSTAR (BMG), excitation at 485 nm and emission at 535 nm or excitation at 520 nm and emission at 590 nm. For all assay formats, data were reported as percent inhibition compared with control wells based on the following equation: % inh=100*([…]), where FLU=measured Fluorescence, AveLow=average Fluorescence of no enzyme control (n=32), and AveHigh=average Fluorescence of DMSO control (n=32). IC50 values were determined by curve fitting of the standard 4 parameter logistic fitting algorithm included in the Activity Base software package: TDBS XE Designer Model205. Data is fitted using the Levenburg Marquardt algorithm.
In Table 5, absolute stereochemistry has not been determined for some Compounds. Accordingly, assignment ofany Compounds as the “R” or “S” stereoisomer is arbitrary, unless otherwise noted. In some cases, Compounds are labeled with “1st eluting isomer”, “2nd eluting isomer”, etc. based on the purification method used to separate the stereoisomers.

USP1, sequence (O94782 whole entry): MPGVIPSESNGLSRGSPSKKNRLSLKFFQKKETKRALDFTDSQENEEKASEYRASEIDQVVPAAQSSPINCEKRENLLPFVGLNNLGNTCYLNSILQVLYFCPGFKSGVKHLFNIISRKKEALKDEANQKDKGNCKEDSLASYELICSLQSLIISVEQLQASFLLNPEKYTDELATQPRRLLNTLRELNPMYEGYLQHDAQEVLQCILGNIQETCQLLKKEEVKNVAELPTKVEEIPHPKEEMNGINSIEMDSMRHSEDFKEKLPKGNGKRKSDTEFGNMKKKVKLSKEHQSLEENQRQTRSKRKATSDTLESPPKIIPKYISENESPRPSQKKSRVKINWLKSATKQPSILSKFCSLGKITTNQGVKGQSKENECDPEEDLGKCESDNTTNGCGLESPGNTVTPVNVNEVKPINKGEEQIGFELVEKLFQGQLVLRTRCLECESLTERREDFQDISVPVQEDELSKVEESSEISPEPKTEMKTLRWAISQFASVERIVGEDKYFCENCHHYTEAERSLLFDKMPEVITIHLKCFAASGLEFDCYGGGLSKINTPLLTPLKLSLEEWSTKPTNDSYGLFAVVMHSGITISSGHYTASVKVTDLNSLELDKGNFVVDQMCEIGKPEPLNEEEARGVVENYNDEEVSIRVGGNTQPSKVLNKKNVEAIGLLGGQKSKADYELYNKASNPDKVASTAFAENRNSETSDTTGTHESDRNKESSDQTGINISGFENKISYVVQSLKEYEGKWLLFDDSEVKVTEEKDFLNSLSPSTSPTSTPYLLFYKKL
USP1, sequence (Q8TAF3 whole entry partner): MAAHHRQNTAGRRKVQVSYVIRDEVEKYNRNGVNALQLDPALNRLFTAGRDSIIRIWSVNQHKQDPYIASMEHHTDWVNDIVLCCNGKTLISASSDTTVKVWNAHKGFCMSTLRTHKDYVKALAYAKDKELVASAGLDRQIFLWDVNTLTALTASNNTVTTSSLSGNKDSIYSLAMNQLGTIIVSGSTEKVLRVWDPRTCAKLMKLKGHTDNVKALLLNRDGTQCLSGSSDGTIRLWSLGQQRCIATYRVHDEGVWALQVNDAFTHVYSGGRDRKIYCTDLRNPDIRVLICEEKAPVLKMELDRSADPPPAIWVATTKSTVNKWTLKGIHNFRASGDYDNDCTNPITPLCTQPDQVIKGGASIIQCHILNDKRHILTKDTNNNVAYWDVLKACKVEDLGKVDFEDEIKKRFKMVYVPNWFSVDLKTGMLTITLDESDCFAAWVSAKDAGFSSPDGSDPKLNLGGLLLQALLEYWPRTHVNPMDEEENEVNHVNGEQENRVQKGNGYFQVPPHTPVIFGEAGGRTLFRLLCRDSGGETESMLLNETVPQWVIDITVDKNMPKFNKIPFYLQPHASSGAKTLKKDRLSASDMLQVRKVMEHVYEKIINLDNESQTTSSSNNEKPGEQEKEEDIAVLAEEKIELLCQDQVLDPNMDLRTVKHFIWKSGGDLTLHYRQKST

Row | Structure (SMILES) | IC50
1 | Cc1nc(-c2cccnc2C(C)C)c2n1CC(C)N(c1ccc(-c3nc(C(F)(F)F)cn3C)cc1)C2 (single isomer, unassigned) [Compound 8-1, 3-[3,6-dimethyl-7-{4-[1-methyl-4-(trifluoromethyl)-1H-imidazol-2-yl]phenyl}-5H,6H,7H,8H-imidazo[1,5-a]pyrazin-1-yl]-2-(propan-2-yl)pyridine] | ≤ 1 µM
2 | Cc1nc(-c2cccnc2OC(F)F)c2n1CC(C)N(c1ccc(-c3nc(C(F)(F)F)cn3C)cc1)C2 (single isomer, unassigned) [Compound 27-1, 2-(difluoromethoxy)-3-[-3,6-dimethyl-7-{4-[1-methyl-4-(trifluoromethyl)-1H-imidazol-2-yl]phenyl}-5H,6H,7H,8H-imidazo[1,5-a]pyrazin-1-yl]pyridine] | ≤ 1 µM
3 | Cc1nc(-c2cccnc2OC(F)F)c2n1CCN(c1ccc(-c3nc(C(F)(F)F)cn3C)cc1)C2C (single isomer, unassigned) [Compound 52-1, 2-(difluoromethoxy)-3-[-3,8-dimethyl-7-{4-[1-methyl-4-(trifluoromethyl)-1H-imidazol-2-yl]phenyl}-5H,6H,7H,8H-imidazo[1,5-a]pyrazin-1-yl]pyridine] | ≤ 1 µM
4 | Cc1nc(-c2cccnc2OC(F)F)c2n1CCN(c1ccc(-c3nc(C(F)(F)F)cn3C)cc1)C2C (single isomer, unassigned) [Compound 52-2, 2-(difluoromethoxy)-3-[-3,8-dimethyl-7-{4-[1-methyl-4-(trifluoromethyl)-1H-imidazol-2-yl]phenyl}-5H,6H,7H,8H-imidazo[1,5-a]pyrazin-1-yl]pyridine] | 1 to 10 µM
5 | Cc1nc(-c2cccnc2C(C)C)c2n1C(C)CN(c1ccc(-c3nc(C(F)(F)F)cn3C)cc1)C2 (single isomer, unassigned) [Compound 72-1, 3-[-3,5-dimethyl-7-{4-[1-methyl-4-(trifluoromethyl)-1H-imidazol-2-yl]phenyl}-5H,6H,7H,8H-imidazo[1,5-a]pyrazin-1-yl]-2-(propan-2-yl)pyridine] | ≤ 1 µM
6 | Cc1nc(-c2cccnc2C(C)C)c2n1CCN(c1ccc(-c3nc(C(F)(F)F)cn3C)cc1)C2 [Compound 1, 1-(2-isopropylpyridin-3-yl)-3-methyl-7-(4-(1-methyl-4-(trifluoromethyl)-1H-imidazol-2-yl)phenyl)-5,6,7,8-tetrahydroimidazo[1,5-a]pyrazine] | ≤ 1 µM
7 | CC(C)c1ncccc1-c1nc(C(F)(F)F)n2c1CN(c1ccc(-c3nc(C(F)(F)F)cn3C)cc1)CC2 [Compound 2, 3-(7-{4-[1-methyl-4-(trifluoromethyl)-1H-imidazol-2-yl]phenyl}-3-(trifluoromethyl)-5H,6H,7H,8H-imidazo[1,5-a]pyrazin-1-yl)-2-(propan-2-yl)pyridine] | ≤ 1 µM
8 | Cc1nc(-c2ccccc2C(C)C)c2n1CCN(c1ccc(-c3nc(C(F)(F)F)cn3C)cc1)C2 [Compound 3, 1-methyl-2-(4-{3-methyl-1-[2-(propan-2-yl)phenyl]-5H,6H,7H,8H-imidazo[1,5-a]pyrazin-7-yl}phenyl)-4-(trifluoromethyl)-1H-imidazole] | ≤ 1 µM
9 | CC(C)c1ncccc1-c1ncn2c1CN(c1ccc(-c3nc(C(F)(F)F)cn3C)cc1)CC2 [Compound 4, 3-(7-{4-[1-methyl-4-(trifluoromethyl)-1H-imidazol-2-yl]phenyl}-5H,6H,7H,8H-imidazo[1,5-a]pyrazin-1-yl)-2-(propan-2-yl)pyridine] | ≤ 1 µM
10 | Cc1nc(-c2cccnc2C(C)C)c2n1CCN(c1ccc(F)cc1)C2 [Compound 5, 3-[7-(4-fluorophenyl)-3-methyl-5H,6H,7H,8H-imidazo[1,5-a]pyrazin-1-yl]-2-(propan-2-yl)pyridine] | > 25 µM
11 | Cc1nc(-c2cccnc2C(C)C)c2n1CCN(c1ccc(C#N)cc1)C2 [Compound 6, 4-{3-methyl-1-[2-(propan-2-yl)pyridin-3-yl]-5H,6H,7H,8H-imidazo[1,5-a]pyrazin-7-yl}benzonitrile] | > 25 µM
12 | Cc1nc(-c2cccnc2C(C)C)c2n1CCN(c1ccc(-c3nc(C(F)(F)F)cn3C)cc1)C2C (stereo not drawn) [Compound 7, 3-(3,8-dimethyl-7-{4-[1-methyl-4-(trifluoromethyl)-1H-imidazol-2-yl]phenyl}-5H,6H,7H,8H-imidazo[1,5-a]pyrazin-1-yl)-2-(propan-2-yl)pyridine] | ≤ 1 µM
13 | Cc1nc(-c2cccnc2C(C)C)c2n1CCN(c1ccc(-n3cccn3)cc1)C2 [Compound 9, 3-{3-methyl-7-[4-(1H-pyrazol-1-yl)phenyl]-5H,6H,7H,8H-imidazo[1,5-a]pyrazin-1-yl}-2-(propan-2-yl)pyridine] | 1 to 10 µM
14 | Cc1nc(-c2cccnc2C(C)C)c2n1CCN(c1ncccn1)C2 [Compound 10, 2-{3-methyl-1-[2-(propan-2-yl)pyridin-3-yl]-5H,6H,7H,8H-imidazo[1,5-a]pyrazin-7-yl}pyrimidine] | > 25 µM
15 | Cc1nc(-c2cccnc2C(C)C)c2n1CCN(c1cnccn1)C2 [Compound 11, 2-{3-methyl-1-[2-(propan-2-yl)pyridin-3-yl]-5H,6H,7H,8H-imidazo[1,5-a]pyrazin-7-yl}pyrazine] | > 25 µM
16 | Cc1nc(-c2cccnc2C(C)C)c2n1CCN(c1cccc3[nH]ccc13)C2 [Compound 12, 4-{3-methyl-1-[2-(propan-2-yl)pyridin-3-yl]-5H,6H,7H,8H-imidazo[1,5-a]pyrazin-7-yl}-1H-indole] | > 25 µM
17 | Cc1nc(-c2cccnc2C(C)C)c2n1CCN(c1ccc(-c3nc(C(F)(F)F)cn3C)cn1)C2 [Compound 13, 2-{3-methyl-1-[2-(propan-2-yl)pyridin-3-yl]-5H,6H,7H,8H-imidazo[1,5-a]pyrazin-7-yl}-5-[1-methyl-4-(trifluoromethyl)-1H-imidazol-2-yl]pyridine] | ≤ 1 µM
18 | Cc1nc(-c2cccnc2C(C)C)c2n1CCN(c1ccc(-c3nccn3C)cc1)C2 [Compound 14, 3-{3-methyl-7-[4-(1-methyl-1H-imidazol-2-yl)phenyl]-5H,6H,7H,8H-imidazo[1,5-a]pyrazin-1-yl}-2-(propan-2-yl)pyridine] | 1 to 10 µM
19 | Cc1nc(-c2cccnc2OC(F)F)c2n1CCN(c1ccc(-c3nc(C(F)(F)F)cn3C)cc1)C2 [Compound 15, 2-(difluoromethoxy)-3-(3-methyl-7-{4-[1-methyl-4-(trifluoromethyl)-1H-imidazol-2-yl]phenyl}-5H,6H,7H,8H-imidazo[1,5-a]pyrazin-1-yl)pyridine] | ≤ 1 µM
20 | Cc1nc(-c2cccnc2OCC(F)(F)F)c2n1CCN(c1ccc(-c3nc(C(F)(F)F)cn3C)cc1)C2 [Compound 16, 3-(3-methyl-7-{4-[1-methyl-4-(trifluoromethyl)-1H-imidazol-2-yl]phenyl}-5H,6H,7H,8H-imidazo[1,5-a)pyrazin-1-yl)-2-(2,2,2-trifluoroethoxy)pyridine] | ≤ 1 µM
21 | COc1ccc(N2CCn3c(C)nc(-c4cccnc4C(C)C)c3C2)cc1 [Compound 17, 3-[7-(4-methoxyphenyl)-3-methyl-5H,6H,7H,8H-imidazo[1,5-a]pyrazin-1-yl]-2-(propan-2-yl)pyridine] | > 25 µM
22 | Cc1nc(-c2cccnc2C(C)C)c2n1CCN(c1ccc(N(C)C)cc1)C2 [Compound 18, N,N-dimethyl-4-{3-methyl-1-[2-(propan-2-yl)pyridin-3-yl]-5H,6H,7H,8H-imidazo[1,5-a]pyrazin-7-yl}aniline] | > 25 µM
23 | Cc1nc(-c2cccnc2C(C)C)c2n1CCN(c1cc(N3CCCCC3)ncn1)C2 [Compound 19, 4-{3-methyl-1-[2-(propan-2-yl)pyridin-3-yl]-5H,6H,7H,8H-imidazo[1,5-a]pyrazin-7-yl}-6-(piperidin-1-yl)pyrimidine] | 10 to 25 µM
24 | Cc1nc(-c2cccnc2OC(C)C)c2n1CCN(c1ccc(-c3nc(C(F)(F)F)cn3C)cc1)C2 [Compound 20, 3-(3-methyl-7-{4-[1-methyl-4-(trifluoromethyl)-1H-imidazol-2-yl]phenyl}-5H,6H,7H,8H-imidazo[1,5-a]pyrazin-1-yl)-2-(propan-2-yloxy)pyridine] | ≤ 1 µM
25 | Cc1ccc(N2CCn3c(C)nc(-c4cccnc4C(C)C)c3C2)cc1 [Compound 21, 3-[3-methyl-7-(4-methylphenyl)-5H,6H,7H,8H-imidazo[1,5-a]pyrazin-1-yl]-2-(propan-2-yl)pyridine] | 10 to 25 µM
26 | COc1ccc(N2CCn3c(C)nc(-c4cccnc4C(C)C)c3C2)cn1 [Compound 22, 2-methoxy-5-{3-methyl-1-[2-(propan-2-yl)pyridin-3-yl]-5H,6H,7H,8H-imidazo[1,5-a]pyrazin-7-yl}pyridine] | 10 to 25 µM
27 | Cc1nc(-c2cccnc2C(C)C)c2n1CCN(c1ccc(OCCN3CCOCC3)cc1)C2 [Compound 23, 4-[2-(4-{3-methyl-1-[2-(propan-2-yl)pyridin-3-yl]-5H,6H,7H,8H-imidazo[1,5-a]pyrazin-7-yl}phenoxy)ethyl]morpholine] | 10 to 25 µM
